Laboratory results taken from publication PMC13286573, “Exploration of precision coregulator TR-FRET identifies diverse signatures for LXR ligands relevant to discovery of nonlipogenic ABCA1 inducers” (eLife, 2026).
One block for each compound: values may come before it.

What was measured:
PXR = target: T1, PXR (Homo sapiens, UniProt O75469); assay: Coactivator SRC1-4 recruitment Lanthascreen PXR; assay type: biochemical; settings: benchmark SR12813
T1 sequence (O75469 146-433 limits assumed): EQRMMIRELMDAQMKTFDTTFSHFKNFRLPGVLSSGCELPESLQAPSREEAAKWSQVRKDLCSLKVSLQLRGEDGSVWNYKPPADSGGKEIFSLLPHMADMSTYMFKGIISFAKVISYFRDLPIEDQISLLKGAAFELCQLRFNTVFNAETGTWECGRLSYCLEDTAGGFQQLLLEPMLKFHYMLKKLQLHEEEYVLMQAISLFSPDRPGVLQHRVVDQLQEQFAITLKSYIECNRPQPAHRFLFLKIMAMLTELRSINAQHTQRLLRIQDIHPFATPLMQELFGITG

cynomolgus monkeys = tested on: cynomolgus monkeys; parameters: method as in Groot et al., 2005; settings: ref Groot et al., 2005; cited from earlier work
LXRα [1] = target: T2, LXRα (Homo sapiens, UniProt Q13133); assay: NCOR2 corepressor binding to LXRα, CRT; assay type: biochemical; parameters: The CRT selectivity assay incorporates GST-tagged LXR-LBD; purchased Thermo Fisher Scientific PV4657; settings: for activity at 1 µM: ligand 1 µM, interpolated from concentration-response, normalized, heat map Figure 9A, read-out: NCOR2α, relative % activity at 1 μM; for Effect on NCOR2 binding to LXRα: monoplex CRT, absence of SRC1
T2 sequence (Q13133 209-447 limits assumed): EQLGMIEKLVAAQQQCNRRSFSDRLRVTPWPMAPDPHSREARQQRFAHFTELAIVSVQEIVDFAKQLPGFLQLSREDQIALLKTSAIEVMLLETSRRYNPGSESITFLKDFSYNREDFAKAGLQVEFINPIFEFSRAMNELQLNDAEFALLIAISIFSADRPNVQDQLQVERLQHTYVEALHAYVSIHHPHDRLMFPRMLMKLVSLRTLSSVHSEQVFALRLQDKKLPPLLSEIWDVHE

LXRα [2] = target: T2, LXRα; parameters: The CRT selectivity assay incorporates GST-tagged LXR-LBD; purchased Thermo Fisher Scientific PV4657; method as in Albers et al., 2006; settings: >1 µM; ref Albers et al., 2006; cited from earlier work
LXRβ [3] = target: T3, LXRβ (Homo sapiens, UniProt P55055); assay: SMRT2 corepressor binding to LXRβ, CRT; assay type: biochemical; parameters: The CRT selectivity assay incorporates GST-tagged LXR-LBD; purchased Thermo Fisher Scientific PV4660; settings: for activity at 1 µM: read-out: SMRT2β, relative % activity at 1 μM
T3 sequence (P55055 222-460 limits assumed): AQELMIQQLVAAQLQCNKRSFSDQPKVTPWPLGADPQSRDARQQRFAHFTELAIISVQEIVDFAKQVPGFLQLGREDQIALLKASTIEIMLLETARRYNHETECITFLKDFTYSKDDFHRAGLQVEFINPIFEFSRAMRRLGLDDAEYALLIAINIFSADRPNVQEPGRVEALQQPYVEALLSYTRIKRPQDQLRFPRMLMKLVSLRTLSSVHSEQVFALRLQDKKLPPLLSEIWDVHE

LXRβ [4] = target: T3, LXRβ; assay: SRC-1 coactivator recruitment to LXRβ, coregulator TR-FRET (CRT); assay type: biochemical; parameters: The CRT selectivity assay incorporates GST-tagged LXR-LBD; purchased Thermo Fisher Scientific PV4660
LXR [5] = assay: Multiplex precision CRT (pCRT), SRC1 and NCOR2, LXR isoform not specified; assay type: biochemical; settings: pCRT versus monoplex CRT
Hamsters = tested on: Hamsters; parameters: method as in Groot et al., 2005; settings: ref Groot et al., 2005; cited from earlier work
C57Bl/6 mice = tested on: C57Bl/6 mice; parameters: method as in Miao et al., 2004; settings: ref Miao et al., 2004, cited from earlier work
LXRβ [6] = target: T3, LXRβ; assay: NCOR2 corepressor binding to LXRβ, CRT; assay type: biochemical; parameters: The CRT selectivity assay incorporates GST-tagged LXR-LBD; purchased Thermo Fisher Scientific PV4660; settings: for Effect on NCOR2 binding to LXRβ: monoplex CRT, absence of SRC1; for activity at 1 µM: read-out: NCOR2β, relative % activity at 1 μM
LXRα [7] = target: T2, LXRα; assay: SMRT2 corepressor binding to LXRα, CRT; assay type: biochemical; parameters: The CRT selectivity assay incorporates GST-tagged LXR-LBD; purchased Thermo Fisher Scientific PV4657; settings: for activity at 1 µM: ligand 1 µM, interpolated from concentration-response, normalized, heat map Figure 9A, read-out: SMRT2α, relative % activity at 1 μM
RXRα = target: T4, RXRα (Homo sapiens, UniProt P19793); assay: Coactivator D22 recruitment Lanthascreen RXRα; assay type: biochemical; settings: normalized to SR11237
T4 construct: the reductionist system of NR-LBD with short coregulator peptides as used in the present work; purchased Thermo Fisher Scientific PV4799

[8] = tested on: sterol response element (SRE); assay: SRE-luc reporter assay in HepG2 cells; assay type: cell-based, human
Excerpt: Our phenotypic high-throughput screen (HTS) approach to identify nonlipogenic ABCA1 Inducers (NLAI) originally used counterscreening with a SREBP1c-luciferase reporter (linked to the SREBF1 gene promoter) in human hepatocarcinoma HepG2 cells ([Ben Aissa et al., 2021]). Unwanted lipogenesis is mediated by LXR agonists via direct transcriptional activation and indirectly by the effects of SREBP1c ([Schultz et al., 2000]; [Brown and Goldstein, 1997]). SREBP1c enhances transcription of genes required for synthesis of fatty acids and TG and as the dominant isoform in liver is associated most closely with lipogenesis and TG elevation ([Brown and Goldstein, 1997]). […] Binding of SREBP1c to the sterol response element (SRE) induces transcription of lipogenic genes associated with elevated TG. To better model the lipogenic axis in hepatocytes, we use HepG2 cells stably transfected with a nanoluciferase reporter downstream of a SRE promoter (SRE-luc), activation of which requires SREBP1c maturation.
HepG2 cells were cotransfected with SRE (LDLR)-NlucP SuperPiggyBac Transposon and a separate Transposase plasmid (System Biosciences). Cells were expanded for multiple passages followed by selection with puromycin (1 μg/ml). Stable cells constitutively express GFP allowed for FACS enrichment and/or cell cloning. Initially, stable pools were compared to low expressing and high expressing enriched pools. The optimal pool was selected based on assay performance (Z’) and was grown and maintained as above, with the addition of 1.0 μg/mL of puromycin biweekly.
Cells were split into flasks containing CS medium (EMEM supplemented with 10% charcoal stripped FBS (Gibco A52567-01)) and 1% P/S and grown at 37 °C /5% CO2 for 48 hr before plating. Cells were plated in 384-well, white clear tissue culture plates (Greiner 781098) and allowed to grow at 37 °C /5% CO2 for 24 hr before medium was aspirated and compound dilutions prepared in CS medium were added. Following a 24 hr incubation, the medium was aspirated, and cells were lysed/luminescence quantified using the Nano-Glo Luciferase Assay System (Promega N1130).

LXR [9] = assay: Corepressor (NCOR2, SMRT2) binding to LXR, CRT, statements across isoforms; assay type: biochemical; settings: monoplex CRT, absence of coactivator
mice = tested on: mice; parameters: method as in Kick et al., 2015; Kirchgessner et al., 2015; settings: highest dose 30 mg/kg qd, ref Kick et al., 2015, Kirchgessner et al.; cited from earlier work
[10] = ligand 1 µM, interpolated from concentration-response, normalized, heat map Figure 9A

T4 sequence (P19793 227-458 limits assumed): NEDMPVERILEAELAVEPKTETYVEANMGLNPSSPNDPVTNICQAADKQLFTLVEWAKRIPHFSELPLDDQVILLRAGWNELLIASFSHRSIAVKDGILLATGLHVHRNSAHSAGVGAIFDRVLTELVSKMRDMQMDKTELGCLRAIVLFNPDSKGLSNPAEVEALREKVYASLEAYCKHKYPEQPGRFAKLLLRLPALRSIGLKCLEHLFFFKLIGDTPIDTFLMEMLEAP

- PXR agonism/binding in CRT (PXR): no binding to PXR
- activity at 1 µM (LXRα [1]): 99.1%
- activity at 1 µM (LXRβ [3]): 92.5%
- SRC1β, relative % activity at 1 μM (LXRβ [4]): 95.64%
- Left-shift in the NCOR2 displacement curve in presence of SRC1 (LXR [5]): 100 fold
- activity at 1 µM (LXRβ [6]): 92.3%
- activity at 1 µM (LXRα [7]): 92.4%
SMILES: O=C(O)Cc1cccc(OCCCN(Cc2cccc(C(F)(F)F)c2Cl)CC(c2ccccc2)c2ccccc2)c1 [GW3965]
- Plasma LDL, HDL and TG (cynomolgus monkeys): increased LDL and HDL at 7 days treatment only, with no effect on TG
- Effect on NCOR2 binding to LXRα (LXRα [1]): displacement of NCOR2 from both LXR isoforms
- Recruitment of NCOR1 to LXRα (LXRα [2]): Weak recruitment of NCOR1 to LXRα
- Plasma TG, LDL-C and VLDL-C (Hamsters): dose-dependent increase
- Liver weight and TGs (C57Bl/6 mice; 3 days treatment, GW3965 even at 100 mg/kg/day): no effect on these liver markers
- SREBP1c and FAS expression in the liver (C57Bl/6 mice; 3 days treatment): minimal increases in SREBP1c and FAS expression in the liver
- ABCA1 expression in peripheral macrophages (C57Bl/6 mice): sevenfold
- ABCA1 expression in the small intestine (C57Bl/6 mice): eightfold
- Effect on NCOR2 binding to LXRβ (LXRβ [6]): displacement of NCOR2 from both LXR isoforms

SMILES: CC1(C)CCC(C)(C)c2cc(C3(c4ccc(C(=O)O)cc4)OCCO3)ccc21 [SR11237]
- RXRα CRT response (RXRα): RXRα-selective full agonists

- activity at 1 µM (LXRα [1]): 100%
- activity at 1 µM (LXRβ [3]; [10]): 102%
- Effect on SMRT2 binding to LXRβ (LXRβ [3]; monoplex CRT): did not perturb SMRT2 binding to LXRβ
- activity at 1 µM (LXRβ [6]; [10]): 107%
- activity at 1 µM (LXRα [7]): 97%
SMILES: CC(C)(O)c1cn(-c2ccc(-c3cccc(S(C)(=O)=O)c3)cc2)c(C(C)(C)c2ccccc2Cl)n1 [XL652]
- SRE activation response/phenotype in HepG2 [8]: little or no activation of SRE at submicromolar concentrations
- Efficacy of SRE activation at concentrations ≤1 µM ([8]; concentrations ≤1 µM): 20–25 % of T0
- Effect on NCOR2 binding to LXRα (LXRα [1]): weakly destabilized the NCOR2 complex with both LXR isoforms
- Effect on NCOR2 binding to LXRβ (LXRβ [6]): weakly destabilized the NCOR2 complex with both LXR isoforms
- Corepressor (NCOR2, SMRT2) displacement or stabilization, across LXR isoforms (LXR [9]): strongly stabilized the corepressor-bound conformation
- Plasma TGs (mice): elevated plasma TGs only at the highest dose
- Effect on SMRT2 binding to LXRα (LXRα [7]; monoplex CRT): stabilization of SMRT2 corepressor binding to LXRα
